Measured values reported in US12180207B2 (ARRAY BIOPHARMA INC., priority 2018, dated 2024).

molecular target: HEK-293 cells transfected with dox-inducible human wild type FGFR2 (Homo sapiens (Human), UniProt P21802); assay: FGFR2 pFGFR cell assay (ELISA); assay type: cell-based; conditions: HEK-293 dox-inducible FGFR2, 1 hour compound, 30 ng/ml FGF-acidic
Method: FGFR2 pFGFR Cell Assay: • HEK-293 cells transfected with dox-inducible human wild type FGFR2 (SEQ ID NO: 3) were plated in a collagen or poly-D-lysine coated 96 well flat bottom plates at 4×10^5 cells/well in complete DMEM medium containing 10% FBS and 1 μg/ml doxycycline and allowed to attach for 24 h at 37° C., 5% CO2. Cells were treated with compound using 1:3 serial dilutions with a maximum final concentration of 5 μM. Compound was incubated on cells for 1 hour at 37° C., 5% CO2. Cells were then stimulated with a final concentration of 30 ng/ml human FGF-acidic (R&D Systems Cat number 232-FA/CF) for 5 minutes at 37° C., 5% CO2. Medium was removed and cells were lysed with lysis buffer containing phosphatase and protease inhibitors. Phospho FGFR2 was measured by ELISA (R&D Systems cat. no. DYC684). The ELISA captures total FGFR2 and detects total phospho tyrosine. Optical density was measured for each well using a Versamax reader at a wavelength of 450 nm. 100 POC was determined using no test compounds and 0 POC was determined using a control compound. The POC values were fit to a 4-parameter logistic curve as a function of the concentration of the compound, and the IC50 value is the point where the curve crosses 50 POC.

HEK-293 cells transfected with dox-inducible human wild type FGFR2, sequence (P21802 22-821): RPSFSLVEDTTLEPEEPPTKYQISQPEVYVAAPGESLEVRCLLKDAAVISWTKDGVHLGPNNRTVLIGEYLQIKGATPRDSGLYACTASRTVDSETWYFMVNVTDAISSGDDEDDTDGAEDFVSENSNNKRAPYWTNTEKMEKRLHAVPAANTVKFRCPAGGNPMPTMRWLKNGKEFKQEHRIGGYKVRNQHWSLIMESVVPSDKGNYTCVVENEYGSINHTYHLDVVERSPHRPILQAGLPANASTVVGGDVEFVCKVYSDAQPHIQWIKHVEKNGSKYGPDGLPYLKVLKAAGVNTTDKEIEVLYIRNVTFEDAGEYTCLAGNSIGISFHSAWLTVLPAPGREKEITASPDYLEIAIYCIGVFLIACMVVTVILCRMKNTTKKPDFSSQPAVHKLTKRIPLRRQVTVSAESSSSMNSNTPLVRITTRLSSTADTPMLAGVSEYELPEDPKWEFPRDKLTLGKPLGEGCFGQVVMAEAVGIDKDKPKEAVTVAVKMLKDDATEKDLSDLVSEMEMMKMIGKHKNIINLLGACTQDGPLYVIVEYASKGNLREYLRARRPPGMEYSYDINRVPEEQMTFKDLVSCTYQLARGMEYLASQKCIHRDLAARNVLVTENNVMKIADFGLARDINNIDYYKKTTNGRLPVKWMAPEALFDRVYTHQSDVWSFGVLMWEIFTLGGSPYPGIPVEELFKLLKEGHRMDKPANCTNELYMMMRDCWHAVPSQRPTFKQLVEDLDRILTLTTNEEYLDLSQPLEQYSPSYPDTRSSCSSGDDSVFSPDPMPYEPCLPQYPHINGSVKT

Row | IC50 [nM] | SMILES
1 | 37 | C=CC(=O)Nc1ccc(CN2CCC(n3cc(-c4cc(OC)c5c(C#N)cnn5c4)cn3)CC2)cc1 [Example 9, N-(4-((4-(4-(3-cyano-4-methoxypyrazolo[1,5-a]pyridin-6-yl)-1H-pyrazol-1-yl)piperidin-1-yl)methyl)phenyl)acrylamide]
2 | 36 | C=CC(=O)N(C)c1ccc(CN2CCC(n3cc(-c4cc(OC)c5c(C#N)cnn5c4)cn3)CC2)cc1 [Example 10, N-(4-((4-(4-(3-cyano-4-methoxypyrazolo[1,5-a]pyridin-6-yl)-1H-pyrazol-1-yl)piperidin-1-yl)methyl)phenyl)-N-methylacrylamide]
3 | 14 | C=CC(=O)N1CCC(n2cc(-c3cc(OC)c4c(C#N)cnn4c3)cn2)CC1 [Example 11, 6-(1-(1-acryloylpiperidin-4-yl)-1H-pyrazol-4-yl)-4-methoxypyrazolo[1,5-a]pyridine-3-carbonitrile]
4 | 129 | C=CC(=O)N1CC(C(=O)N2CCC3(CC2)CN(c2ccc(-c4cc(OC)c5c(C#N)cnn5c4)cn2)C3)C1 [Example 102, 6-(6-(7-(1-acryloylazetidine-3-carbonyl)-2,7-diazaspiro[3.5]nonan-2-yl)pyridin-3-yl)-4-methoxypyrazolo[1,5-a]pyridine-3-carbonitrile]
5 | 1200 | C=CC(=O)N1CC(C(=O)N2C[C@@H]3C[C@H]2CN3c2ccc(-c3cc(OC)c4c(C#N)cnn4c3)cn2)C1 [Example 106, 6-(6-((1S,4S)-5-(1-acryloylazetidine-3-carbonyl)-2,5-diazabicyclo[2.2.1]heptan-2-yl)pyridin-3-yl)-4-methoxypyrazolo[1,5-a]pyridine-3-carbonitrile]
6 | 236 | C=CC(=O)N1CC(CN2C[C@H]3C[C@@H]2CN3c2ccc(-c3cc(OC)c4c(C#N)cnn4c3)cn2)C1 [Example 108, 6-(6-((1R,4R)-5-((1-acryloylazetidin-3-yl)methyl)-2,5-diazabicyclo[2.2.1]heptan-2-yl)pyridin-3-yl)-4-methoxypyrazolo[1,5-a]pyridine-3-carbonitrile]
7 | 348 | C=CC(=O)N1CC(C(=O)N2CCN(c3ccc(-c4cc(OC)c5c(C#N)cnn5c4)cn3)CC2)C1 [Example 111, 6-(6-(4-(1-acryloylazetidine-3-carbonyl)piperazin-1-yl)pyridin-3-yl)-4-methoxypyrazolo[1,5-a]pyridine-3-carbonitrile]
8 | 283 | C=CC(=O)N1CC(OC)(C(=O)N2CCC(n3ncc(-c4cc(OC)c5c(Cl)cnn5c4)c3C)CC2)C1 [Example 117, 1-(3-(4-(4-(3-chloro-4-methoxypyrazolo[1,5-a]pyridin-6-yl)-5-methyl-1H-pyrazol-1-yl)piperidine-1-carbonyl)-3-methoxyazetidin-1-yl)prop-2-en-1-one]
9 | 267 | C=CC(=O)N1CC(CN2CCC(n3ncc(-c4cc(OC)c5c(Cl)cnn5c4)c3C)CC2)C1 [Example 118, 1-(3-((4-(4-(3-chloro-4-methoxypyrazolo[1,5-a]pyridin-6-yl)-5-methyl-1H-pyrazol-1-yl)piperidin-1-yl)methyl)azetidin-1-yl)prop-2-en-1-one]
10 | 322 | C=CC(=O)N1CC(CN2CCC(n3ncc(-c4cc(OC)c5c(Cl)cnn5c4)c3C)CC2)(OC)C1 [Example 119, 1-(3-((4-(4-(3-chloro-4-methoxypyrazolo[1,5-a]pyridin-6-yl)-5-methyl-1H-pyrazol-1-yl)piperidin-1-yl)methyl)-3-methoxyazetidin-1-yl)prop-2-en-1-one]
11 | 83 | C=CC(=O)N1CCN(C(=O)N2CCC(n3cc(-c4cc(OC)c5c(C#N)cnn5c4)cn3)CC2)C[C@@H]1CC#N [Example 135, (S)-6-(1-(1-(4-acryloyl-3-(cyanomethyl)piperazine-1-carbonyl)piperidin-4-yl)-1H-pyrazol-4-yl)-4-methoxypyrazolo[1,5-a]pyridine-3-carbonitrile]
12 | 188 | COc1cc(-c2cnn(C3CCN(C(=O)C4(F)CN(C(=O)/C=C/CN(C)C)C4)CC3)c2C)cn2ncc(C#N)c12 [Example 153, (E)-6-(1-(1-(1-(4-(dimethylamino)but-2-enoyl)-3-fluoroazetidine-3-carbonyl)piperidin-4-yl)-5-methyl-1H-pyrazol-4-yl)-4-methoxypyrazolo [1,5-a]pyridine-3-carbonitrile]
13 | 327 | COC/C=C/C(=O)N1CC(F)(C(=O)N2CCC(n3ncc(-c4cc(OC)c5c(C#N)cnn5c4)c3C)CC2)C1 [Example 154, (E)-6-(1-(1-(3-fluoro-1-(4-methoxybut-2-enoyl)azetidine-3-carbonyl)piperidin-4-yl)-5-methyl-1H-pyrazol-4-yl)-4-methoxypyrazolo [1,5-a]pyridine-3-carbonitrile]
14 | 244 | CC#CC(=O)N1CC(F)(C(=O)N2CCC(n3ncc(-c4cc(OC)c5c(C#N)cnn5c4)c3C)CC2)C1 [Example 156, 6-(1-(1-(1-(but-2-ynoyl)-3-fluoroazetidine-3-carbonyl)piperidin-4-yl)-5-methyl-1H-pyrazol-4-yl)-4-methoxypyrazolo [1,5-a]pyridine-3-carbonitrile]
15 | 1550 | COc1cc(-c2cnn(C3CCN(C(=O)C4(OC)CN(C(=O)/C=C/CN(C)C)C4)CC3)c2C)cn2ncc(C#N)c12 [Example 158, (E)-6-(1-(1-(1-(4-(dimethylamino)but-2-enoyl)-3-methoxyazetidine-3-carbonyl)piperidin-4-yl)-5-methyl-1H-pyrazol-4-yl)-4-methoxypyrazolo [1,5-a]pyridine-3-carbonitrile]
16 | 451 | COc1cc(-c2cnn(C3CCN(CC4(OC)CN(C(=O)/C=C/CN(C)C)C4)CC3)c2C)cn2ncc(C#N)c12 [Example 159, (E)-6-(1-(1-((1-(4-(dimethylamino)but-2-enoyl)-3-methoxyazetidin-3-yl)methyl)piperidin-4-yl)-5-methyl-1H-pyrazol-4-yl)-4-methoxypyrazolo [1,5-a]pyridine-3-carbonitrile]
17 | 537 | COc1cc(-c2c(C)nn(C3CCN(C(=O)C4(F)CN(C(=O)/C=C/CN(C)C)C4)CC3)c2C)cn2ncc(C#N)c12 [Example 161, (E)-6-(1-(1-(1-(4-(dimethylamino)but-2-enoyl)-3-fluoroazetidine-3-carbonyl)piperidin-4-yl)-3,5-dimethyl-1H-pyrazol-4-yl)-4-methoxypyrazolo [1,5-a]pyridine-3-carbonitrile]
18 | 1180 | COc1cc(-c2nnn(C3CCN(C(=O)C4(F)CN(C(=O)/C=C/CN(C)C)C4)CC3)c2C)cn2ncc(C#N)c12 [Example 164, (E)-6-(1-(1-(1-(4-(dimethylamino)but-2-enoyl)-3-fluoroazetidine-3-carbonyl)piperidin-4-yl)-5-methyl-1H-1,2,3-triazol-4-yl)-4-methoxypyrazolo [1,5-a]pyridine-3-carbonitrile]
19 | 171 | COc1cc(-c2cnn(C3CCN(C(=O)C4(F)CN(C(=O)/C=C/CN(C)C)C4)CC3)c2C)cn2ncc(Cl)c12 [Example 170, (E)-1-(3-(4-(4-(3-chloro-4-methoxypyrazolo [1,5-a]pyridin-6-yl)-5-methyl-1H-pyrazol-1-yl)piperidine-1-carbonyl)-3-fluoroazetidin-1-yl)-4-(dimethylamino)but-2-en-1-one]
20 | 263 | COc1cc(-c2cnn(C3CCN(C(=O)C4(OC)CN(C(=O)/C=C/CN(C)C)C4)CC3)c2C)cn2ncc(Cl)c12 [Example 171, (E)-1-(3-(4-(4-(3-chloro-4-methoxypyrazolo [1,5-a]pyridin-6-yl)-5-methyl-1H-pyrazol-1-yl)piperidine-1-carbonyl)-3-methoxyazetidin-1-yl)-4-(dimethylamino)but-2-en-1-one]
21 | 1680 | COc1cc(-c2cnn(C3CCN(C(=O)C4CN(C(=O)C#CCO)C4)CC3)c2)cn2ncc(C#N)c12 [Example 179, 6-(1-(1-(1-(4-hydroxybut-2-ynoyl)azetidine-3-carbonyl)piperidin-4-yl)-1H-pyrazol-4-yl)-4-methoxypyrazolo[1,5-a]pyridine-3-carbonitrile]
22 | 292 | COc1cc(-c2cnn(C3CCN(C(=O)C4CN(C(=O)/C=C/CCl)C4)CC3)c2)cn2ncc(C#N)c12 [Example 181, (E)-6-(1-(1-(1-(4-chlorobut-2-enoyl)azetidine-3-carbonyl)piperidin-4-yl)-1H-pyrazol-4-yl)-4-methoxypyrazolo[1,5-a]pyridine-3-carbonitrile]
23 | 42 | C=CS(=O)(=O)N1CCC(C(=O)N2CCC(n3cc(-c4cc(OC)c5c(C#N)cnn5c4)cn3)CC2)CC1 [Example 186, 4-methoxy-6-(1-(1-(1-(vinylsulfonyl)piperi-dine-4-carbonyl)piperidin-4-yl)-1H-pyrazol-4-yl)pyrazolo[1,5-a]pyridine-3-carbonitrile]

molecular target: HEK-293 cells transfected with dox-inducible human wild type FGFR3 (Homo sapiens (Human), UniProt P22607); assay: FGFR3 pFGFR cell assay (ELISA); assay type: cell-based; conditions: HEK-293 dox-inducible FGFR3, 1 hour compound, 100 ng/ml FGF-acidic
Summary of the method: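 Doxycycline-induced (1 μg/ml) HEK-293 cells expressing wild-type human FGFR3, treated 1 h with compound (1:3 series, top final 5 μM), then stimulated 5 min with 100 ng/ml FGF-acidic. Phospho-FGFR3 measured by ELISA (total FGFR3 capture, phosphotyrosine detection, OD 450 nm); IC50 from 4-parameter fit of POC values.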

HEK-293 cells transfected with dox-inducible human wild type FGFR3, sequence (P22607 23-806): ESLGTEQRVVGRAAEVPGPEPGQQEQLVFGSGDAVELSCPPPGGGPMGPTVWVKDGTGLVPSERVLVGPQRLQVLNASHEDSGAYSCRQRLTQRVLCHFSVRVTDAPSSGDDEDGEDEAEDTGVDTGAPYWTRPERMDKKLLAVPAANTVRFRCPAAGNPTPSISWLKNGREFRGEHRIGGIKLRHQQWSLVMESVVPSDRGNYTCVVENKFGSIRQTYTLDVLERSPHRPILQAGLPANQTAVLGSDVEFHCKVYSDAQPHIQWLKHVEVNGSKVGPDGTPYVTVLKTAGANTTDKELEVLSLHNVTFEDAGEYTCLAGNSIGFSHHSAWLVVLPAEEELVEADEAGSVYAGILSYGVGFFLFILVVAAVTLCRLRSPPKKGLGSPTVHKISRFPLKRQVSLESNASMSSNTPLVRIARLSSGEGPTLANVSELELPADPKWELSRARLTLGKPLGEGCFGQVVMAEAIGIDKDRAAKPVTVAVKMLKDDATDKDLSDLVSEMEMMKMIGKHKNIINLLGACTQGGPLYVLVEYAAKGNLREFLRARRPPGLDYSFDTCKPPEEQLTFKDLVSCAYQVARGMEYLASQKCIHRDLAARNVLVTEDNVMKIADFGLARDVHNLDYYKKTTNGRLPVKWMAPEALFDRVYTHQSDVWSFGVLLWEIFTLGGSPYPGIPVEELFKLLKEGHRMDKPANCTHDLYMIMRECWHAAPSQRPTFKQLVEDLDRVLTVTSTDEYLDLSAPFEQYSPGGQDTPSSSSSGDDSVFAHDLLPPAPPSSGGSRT

Row | IC50 [nM] | SMILES
24 | 28 | C=CC(=O)Nc1ccc(CN2CCC(n3cc(-c4cc(OC)c5c(C#N)cnn5c4)cn3)CC2)cc1 [Example 9, N-(4-((4-(4-(3-cyano-4-methoxypyrazolo[1,5-a]pyridin-6-yl)-1H-pyrazol-1-yl)piperidin-1-yl)methyl)phenyl)acrylamide]
25 | 38 | C=CC(=O)N(C)c1ccc(CN2CCC(n3cc(-c4cc(OC)c5c(C#N)cnn5c4)cn3)CC2)cc1 [Example 10, N-(4-((4-(4-(3-cyano-4-methoxypyrazolo[1,5-a]pyridin-6-yl)-1H-pyrazol-1-yl)piperidin-1-yl)methyl)phenyl)-N-methylacrylamide]
26 | 43 | C=CC(=O)N1CC(C(=O)N2CCN(c3ccc(-c4cc(OC)c5c(C#N)cnn5c4)cn3)CC2)C1 [Example 111, 6-(6-(4-(1-acryloylazetidine-3-carbonyl)piperazin-1-yl)pyridin-3-yl)-4-methoxypyrazolo[1,5-a]pyridine-3-carbonitrile]
27 | 6 | C=CS(=O)(=O)N1CCC(C(=O)N2CCC(n3cc(-c4cc(OC)c5c(C#N)cnn5c4)cn3)CC2)CC1 [Example 186, 4-methoxy-6-(1-(1-(1-(vinylsulfonyl)piperi-dine-4-carbonyl)piperidin-4-yl)-1H-pyrazol-4-yl)pyrazolo[1,5-a]pyridine-3-carbonitrile]
